Consider five compounds from publication doi:10.1101/2021.02.13.431008v1 (biorxiv, 2021).

Structures are written as SMILES. Bounds are passed on as bounds.

Test [1] deals with T1, SARS-CoV-2 PLpro (papain-like protease) (Severe acute respiratory syndrome coronavirus 2, UniProt P0DTD1). The following applies: binder.
Test [2] addresses T1, SARS-CoV-2 PLpro (papain-like protease). Description: biochemical.

Take `Cc1ccc(NC2CNC2)cc1C(=O)N[C@H](C)c1cccc(-c2cccs2)c1` [ZN3-80]: the “Ave kd” value in test [1] stood at 0.327 s⁻¹.
For the compound `Cc1ccc(NC2CNC2)cc1C(=O)N[C@H](C)c1cccc2ccccc12` [ZN2-184], the “Ave kd” value in test [1] was found to be 0.349 s⁻¹.
`CC(C)c1cc(C(C)C)c(CC(=O)NS(=O)(=O)Oc2c(C(C)C)cccc2C(C)C)c(C(C)C)c1` [avasimibe]: the half-inhibitory concentration (IC50) (in general, the concentration that gives 50% inhibition) in test [2] was above 20 µM.
As to `Cc1ccc(NC2CNC2)cc1C(=O)N[C@H](C)c1cccc(-c2ccc(CNC3CCCC3)s2)c1` [XR8-23], the “Ave kd” value in test [1] worked out at 0.124 s⁻¹.
For `CCOc1nc2cccc(C(=O)O)c2n1Cc1ccc(-c2ccccc2-c2nnn[nH]2)cc1` [candesartan], the 50% inhibitory concentration (IC50) in test [2] is above 20 µM.
